Assay results published in ChEMBL document CHEMBL3758092, “Discovery and preclinical evaluation of potent, orally bioavailable, metabolically stable cyclopropylindolobenzazepine acylsulfonamides as thumb site 1 inhibitors of the hepatitis c virus NS5B RNA-dependent, RNA polymerase” (Bioorg Med Chem Lett, 2016).
pEC50, pIC50: −log10 of the molar value.

What was measured:
Hepatitis C virus [1] = assay: Antiviral activity against HCV1b by replicon assay; assay type: functional, organism-based, Hepacivirus hominis; details: genotype 1b
Hepatitis C virus [2] = assay: Antiviral activity against HCV1a by replicon assay; assay type: functional, organism-based, Hepacivirus hominis; details: subtype 1a
[3] = Half life in cynomolgus monkey liver microsomes; assay type: ADME, Macaca fascicularis
[4] = Half life in human liver microsomes; assay type: ADME
[5] = Drug uptake in rat at 10 mg/kg, po liver after 6 hrs; assay type: ADME, organism-based; details: read-out: Drug uptake
[6] = Ratio of drug level in liver to plasma in rat at 10 mg/kg, po after 6 hrs; assay type: ADME, organism-based
[7] = Oral bioavailability in rat at 10 mg/kg; assay type: ADME, organism-based; details: in vivo
Hepatitis C virus [8] = assay: Antiviral activity against HCV1b by replicon assay in presence of 40% human serum; assay type: functional, organism-based, Hepacivirus hominis; details: genotype 1b
[9] = target: Voltage-gated inwardly rectifying potassium channel KCNH2 (Homo sapiens, UniProt Q12809); assay: Inhibition of human ERG by FLIPR assay
in vitro = details: rat, liver microsomes
Description: Metabolic stability in rat liver microsomes assessed as compound remaining after 10 mins

[10] = Ratio of drug level in liver to plasma in rat at 10 mg/kg, po after 48 hrs; assay type: ADME, organism-based
Liver [11] = assay: (§1) Drug uptake in rat at 10 mg/kg, po liver after 48 hrs; assay type: ADME, organism-based; details: in vivo, 48 h, BLD = below limit of detection
[12] = Clearance in rat at 10 mg/kg, po; assay type: ADME, organism-based; details: in vivo
Liver [13] = assay: Drug uptake in rat at 10 mg/kg, po liver after 24 hrs; assay type: ADME, organism-based; details: in vivo, BLD = below limit of detection
[14] = Solubility in mid-range pH solutions; assay type: physicochemical
[15] = Oral bioavailability in cynomolgus monkey at 3 mg/kg; assay type: ADME, organism-based, Macaca fascicularis; details: in vivo
[16] = Oral bioavailability in dog at 3 mg/kg; assay type: ADME, organism-based, Canis lupus familiaris; details: in vivo
[17] = AUC (0 to 24 hrs) in dog at 1 mg/kg, iv; assay type: ADME, organism-based, Canis lupus familiaris; parameters: dose 1 mg/kg, time < 24 hr, route intravenous; details: in vivo
[18] = AUC (0 to 24 hrs) in cynomolgus monkey at 3 mg/kg, po; assay type: ADME, organism-based, Macaca fascicularis; parameters: dose 3 mg/kg, time < 24 hr, route oral; details: in vivo
[19] = AUC (0 to 24 hrs) in rat at 10 mg/kg, po; assay type: ADME, organism-based; parameters: time < 24 hr, dose 10 mg/kg, route oral; details: in vivo
[20] = AUC (0 to 24 hrs) in dog at 3 mg/kg, po; assay type: ADME, organism-based, Canis lupus familiaris; parameters: time < 24 hr, dose 3 mg/kg, route oral; details: in vivo
[21] = AUC (0 to 24 hrs) in rat at 5 mg/kg, iv; assay type: ADME, organism-based; parameters: dose 5 mg/kg, time < 24 hr, route intravenous; details: in vivo
[22] = AUC (0 to 24 hrs) in cynomolgus monkey at 1 mg/kg, iv; assay type: ADME, organism-based, Macaca fascicularis; parameters: time < 24 hr, dose 1 mg/kg, route intravenous; details: in vivo
[23] = Ratio of drug level in liver to plasma in rat at 10 mg/kg, po after 4 hrs; assay type: ADME, organism-based
[24] = Ratio of drug level in liver to plasma in rat at 10 mg/kg, po after 24 hrs; assay type: ADME, organism-based
[25] = as §1; assay type: ADME, organism-based; details: liver, read-out: Drug uptake
[26] = Permeability of the compound at pH 7.4 by PAMPA; assay type: ADME; details: read-out: permeability
[27] = Drug uptake in rat at 10 mg/kg, po liver after 4 hrs; assay type: ADME, organism-based; details: read-out: Drug uptake
[28] = Plasma concentration in rat at 10 mg/kg, po after 6 hrs; assay type: ADME, organism-based

Chain of Voltage-gated inwardly rectifying potassium channel KCNH2 (Q12809 whole entry): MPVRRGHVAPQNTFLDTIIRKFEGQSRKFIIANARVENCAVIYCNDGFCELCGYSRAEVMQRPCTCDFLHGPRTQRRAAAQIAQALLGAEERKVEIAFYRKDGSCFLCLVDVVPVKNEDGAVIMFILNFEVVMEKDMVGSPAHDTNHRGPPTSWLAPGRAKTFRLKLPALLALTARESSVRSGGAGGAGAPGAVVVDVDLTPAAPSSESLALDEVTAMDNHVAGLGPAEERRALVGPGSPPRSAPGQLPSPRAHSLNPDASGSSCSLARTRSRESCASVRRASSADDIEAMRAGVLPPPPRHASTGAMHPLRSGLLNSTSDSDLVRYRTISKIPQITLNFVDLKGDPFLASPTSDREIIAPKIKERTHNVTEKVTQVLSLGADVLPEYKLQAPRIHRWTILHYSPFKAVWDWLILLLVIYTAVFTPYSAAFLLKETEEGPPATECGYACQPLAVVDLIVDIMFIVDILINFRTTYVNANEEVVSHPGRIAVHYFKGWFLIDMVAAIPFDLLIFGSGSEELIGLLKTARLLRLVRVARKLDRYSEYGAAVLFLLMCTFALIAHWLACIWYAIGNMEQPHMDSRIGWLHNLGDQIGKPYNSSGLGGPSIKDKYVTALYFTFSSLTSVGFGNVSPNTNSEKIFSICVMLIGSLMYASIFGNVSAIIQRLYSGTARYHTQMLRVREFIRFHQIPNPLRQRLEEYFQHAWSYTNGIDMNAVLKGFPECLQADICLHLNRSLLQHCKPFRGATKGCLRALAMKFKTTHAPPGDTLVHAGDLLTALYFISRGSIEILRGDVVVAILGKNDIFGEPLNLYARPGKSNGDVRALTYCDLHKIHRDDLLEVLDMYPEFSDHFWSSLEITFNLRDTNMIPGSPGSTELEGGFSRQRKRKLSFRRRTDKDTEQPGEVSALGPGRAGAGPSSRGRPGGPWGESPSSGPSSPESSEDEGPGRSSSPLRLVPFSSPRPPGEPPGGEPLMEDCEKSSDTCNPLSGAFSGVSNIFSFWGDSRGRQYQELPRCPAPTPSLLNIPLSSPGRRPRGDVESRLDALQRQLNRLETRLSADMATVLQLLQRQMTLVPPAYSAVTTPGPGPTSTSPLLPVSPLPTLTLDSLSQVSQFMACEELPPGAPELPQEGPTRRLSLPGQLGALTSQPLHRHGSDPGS

Row | Compound | pEC50 (Hepatitis C virus [1]) | pEC50 (Hepatitis C virus [2]) | half-life [3] [min] | half-life [4] [min] | concentration at 6 h [5] [µM] | Kp at 6 h [6] | bioavailability [7] [%] | CL/F [12] [mL/min/kg] | further results
1 | CCCCS(=O)(=O)NC(=O)c1ccc2c(C3CCCCC3)c3n(c2c1)CC1(C(=O)N2C4CCC2CN(C)C4)CC1c1cc(OC)ccc1-3 (racemic) | 7.35 | 7.82 | 19 | 73 | – | – | – | – | –
2 | COc1ccc2c(c1)C1CC1(C(=O)N1C3CCC1CN(C)C3)Cn1c-2c(C2CCCCC2)c2ccc(C(=O)NS(=O)(=O)C(C)C)cc21 (racemic) | 7.55 | 7.70 | – | – | 26.2 | 13 | 65 | – | –
3 | COc1ccc2c(c1)[C@@H]1C[C@]1(C(=O)N1C3CCC1CN(C)C3)Cn1c-2c(C2CCCCC2)c2ccc(C(=O)NS(=O)(=O)CC(C)C)cc21 | 8.70 | – | 24.4 | > 72 | – | 47 | 41 | – | pEC50 (Hepatitis C virus [8]): 7.10; pIC50 [9]: 4.78; remaining at 10 min (in vitro): 100%; Kp at 48 h [10]: 4
4 | COc1ccc2c(c1)C1CC1(C(=O)N1C3CCC1CN(C)C3)Cn1c-2c(C2CCCCC2)c2ccc(C(=O)NS(=O)(=O)CC3CCC3)cc21 (racemic) | 7.25 | 7.82 | 9 | 45 | – | – | 19.1 | 13.3 | Drug uptake (Liver [11]): BLD
5 | COc1ccc2c(c1)[C@H]1C[C@@]1(C(=O)N1C3CCC1CN(C)C3)Cn1c-2c(C2CCCCC2)c2ccc(C(=O)NS(=O)(=O)C(C)C)cc21 | 6.83 | 6.71 | – | – | – | – | – | – | –
6 | COc1ccc2c(c1)C1CC1(C(=O)N1C3CCC1CN(C)C3)Cn1c-2c(C2CCCCC2)c2ccc(C(=O)NS(C)(=O)=O)cc21 (racemic) | 7.74 | 7.89 | 80 | 179 | – | – | 3.6 | 54.4 | Drug uptake (Liver [13]): BLD
7 | COc1ccc2c(c1)C1CC1(C(=O)N1C3CCC1CN(C)C3)Cn1c-2c(C2CCCCC2)c2ccc(C(=O)NS(=O)(=O)C3CCC3)cc21 (racemic) | 7.40 | 7.64 | 46.5 | > 60 | 38.8 | 67 | – | 5.2 | –
8 | COc1ccc2c(c1)C1CC1(C(=O)N1C3CCC1CN(C)C3)Cn1c-2c(C2CCCCC2)c2ccc(C(=O)NS(=O)(=O)C(C)(C)C)cc21 (racemic) | 7.64 | 8.10 | 44 | > 60 | – | – | 12.4 | 13.5 | Drug uptake (Liver [13]): BLD
9 | COc1ccc2c(c1)[C@@H]1C[C@]1(C(=O)N1C3CCC1CN(C)C3)Cn1c-2c(C2CCCCC2)c2ccc(C(=O)NS(=O)(=O)C(C)C)cc21 | – | 8.15 | – | – | – | 20 | 65 | – | solubility [14]: soluble; bioavailability [15]: 25%; pEC50 (Hepatitis C virus [8]): 7.70; bioavailability [16]: 100%; AUC(0-t) at 24 h [17]: 36 µM·h; AUC(0-t) at 24 h [18]: 5.4 µM·h; AUC(0-t) at 24 h [19]: 16 µM·h; Kp at 48 h [10]: 11; AUC(0-t) at 24 h [20]: 124 µM·h; AUC(0-t) at 24 h [21]: 18 µM·h; AUC(0-t) at 24 h [22]: 7 µM·h
10 | COc1ccc2c(c1)[C@@H]1C[C@]1(C(=O)N1[C@@H]3CC[C@H]1CN(C)C3)Cn1c-2c(C2CCCCC2)c2ccc(C(=O)NS(=O)(=O)N(C)C)cc21 [BECLABUVIR] | – | – | – | 45 | – | 10 | 43 | – | Kp at 4 h [23]: 2; Kp at 24 h [24]: 10; pEC50 (Hepatitis C virus [8]): 7.40; pIC50 [9]: 4.59; remaining at 10 min (in vitro): 100%
11 | COc1ccc2c(c1)C1CC1(C(=O)N1C3CCC1CN(C)C3)Cn1c-2c(C2CCCCC2)c2ccc(C(=O)NS(=O)(=O)C3CCCC3)cc21 (racemic) | 7.21 | 7.62 | 18.2 | > 60 | 35.3 | 36 | – | 7.7 | –
12 | CCS(=O)(=O)NC(=O)c1ccc2c(C3CCCCC3)c3n(c2c1)CC1(C(=O)N2C4CCC2CN(C)C4)CC1c1cc(OC)ccc1-3 (racemic) | 7.64 | 7.77 | 72 | 206 | 7.9 | 108 | – | 40 | –
13 | COc1ccc2c(c1)C1CC1(C(=O)N1C3CCC1CN(C)C3)Cn1c-2c(C2CCCCC2)c2ccc(C(=O)NS(=O)(=O)CC(C)(C)C)cc21 (racemic) | 7.39 | 7.64 | 8.4 | 48 | 65.3 | 14.5 | – | 4.1 | –
14 | COc1ccc2c(c1)[C@@H]1C[C@]1(C(=O)N1C3CCC1CN(C)C3)Cn1c-2c(C2CCCCC2)c2ccc(C(=O)NS(=O)(=O)C3CCC3)cc21 | 8.30 | – | 65.5 | 70.5 | – | – | 28 | 13.4 | pEC50 (Hepatitis C virus [8]): 7.15; concentration at 48 h [25]: 0.07 µM; remaining at 10 min (in vitro): 87.8%
15 | COc1ccc2c(c1)C1CC1(C(=O)N1C3CCC1CN(C)C3)Cn1c-2c(C2CCCCC2)c2ccc(C(=O)NS(=O)(=O)N(C)C)cc21 (racemic) | 7.92 | – | – | 76 | – | – | – | – | Papp [26]: 71.3 ×10⁻⁶ cm/s; concentration at 4 h [27]: 69 µM; remaining at 10 min (in vitro): 100%
16 | COc1ccc2c(c1)C1CC1(C(=O)N1C3CCC1CN(C)C3)Cn1c-2c(C2CCCCC2)c2ccc(C(=O)NS(=O)(=O)CC(C)C)cc21 (racemic) | 7.66 | 7.85 | 24.5 | > 60 | 88.3 | 150 | – | 9.2 | –
17 | CCCS(=O)(=O)NC(=O)c1ccc2c(C3CCCCC3)c3n(c2c1)CC1(C(=O)N2C4CCC2CN(C)C4)CC1c1cc(OC)ccc1-3 (racemic) | 7.68 | 8.10 | 37 | 112 | 13.1 | 120 | – | 16.5 | –
18 | CCC(C)S(=O)(=O)NC(=O)c1ccc2c(C3CCCCC3)c3n(c2c1)CC1(C(=O)N2C4CCC2CN(C)C4)CC1c1cc(OC)ccc1-3 (racemic) | 7.43 | 7.82 | 38 | 18 | – | – | – | – | –
19 | COc1ccc2c(c1)C1CC1(C(=O)N1C3CCC1CN(C)C3)Cn1c-2c(C2CCCCC2)c2ccc(C(=O)NS(=O)(=O)N3CCC3)cc21 (racemic) | 7.62 | 7.92 | 55 | 135 | 0.8 | – | – | – | Papp [26]: 66.5 ×10⁻⁶ cm/s; remaining at 10 min (in vitro): 100%; concentration at 6 h [28]: 0.02 µM
20 | COc1ccc2c(c1)C1CC1(C(=O)N1C3CCC1CN(C)C3)Cn1c-2c(C2CCCCC2)c2ccc(C(=O)NS(=O)(=O)CC3CC3)cc21 (racemic) | 7.66 | 8.30 | 39 | 200 | – | – | 13.7 | 19.6 | concentration at 48 h [25]: 0.15 µM
21 | COc1ccc2c(c1)C1CC1(C(=O)N1C3CCC1CN(C)C3)Cn1c-2c(C2CCCCC2)c2ccc(C(=O)NS(=O)(=O)C3CC3)cc21 (racemic) | 7.82 | 8.15 | 130 | 179 | – | 66 | 4.9 | 26.9 | concentration at 4 h [27]: 6.4 µM
22 | CCN(C)S(=O)(=O)NC(=O)c1ccc2c(C3CCCCC3)c3n(c2c1)CC1(C(=O)N2C4CCC2CN(C)C4)CC1c1cc(OC)ccc1-3 (racemic) | 7.89 | 7.85 | – | 27.3 | 36.4 | – | – | – | Papp [26]: 56.1 ×10⁻⁶ cm/s; remaining at 10 min (in vitro): 94%; concentration at 6 h [28]: 0.178 µM
